From the METLIN SMRT retention time set (Domingo-Almenara et al. 2019)

Test: gradient 5% acetonitrile 3 min, to 50% in 2 min, to 85% in 15 min, held 3 min, 100 µL/min
Conditions: column: Zorbax Extend-C18 2.1 x 50 mm; eluents: water / acetonitrile, 0.1% formic acid
Procedure, shortened: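 Pure standards were analyzed in mixtures of ~100 molecules using HPLC coupled to a quadrupole time-of-flight mass spectrometer, in both positive and negative ionization mode. Separation used a Zorbax Extend-C18 column (2.1 × 50 mm, 1.8 μm) at 100 μL/min, with water and acetonitrile each containing 0.1% formic acid. Dead and dwell volumes were 40 μL and 900 μL, and data were collected over 3 months. Retention time was read from computationally picked adduct peaks, each inspected manually.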

| RP-LC retention time [s] | SMILES |
| --- | --- |
| 886 | COC(=O)c1sc2ccccc2c1NC(=O)c1cc(C)n(C)n1 |
| 883 | O=S(=O)(Nc1ccccc1)c1ccc(-c2nnc(C3CCC3)o2)o1 |
| 690 | CN(C)C(=O)Cn1c(=O)c2cccn2c2ccc(F)cc21 |
| 611 | Cc1ccc(NC(=O)Cn2c(N)nc(C)c(C)c2=O)cc1 |
| 778 | COc1cc(NC(=O)Cc2c(C(=O)O)c(C)cn2C)cc(OC)c1 |
| 1080 | CCc1nn2c(CNC(=O)c3ccc(C(C)C)cc3)c(-c3ccccc3)nc2s1 |
| 897 | CCOC(=O)c1c(S(=O)(=O)N2CCC(C(=O)Nc3ccc(F)cc3C)CC2)c(C)n(C)c1C |
| 814 | COc1ccc(NC(=O)c2nc(N3CCSCC3)c3cnn(C)c3n2)cc1 |
| 755 | COc1ccc(C2NC(c3ccc(OC)c(OC)c3)C(C)C(=O)C2C)cc1OC (centres undefined) |
| 600 | CN1CCN(CCNC(=O)c2cc(-c3ccccc3)cn2C)CC1 |
| 602 | CN(CCCNC(=O)C1CCc2nc(N3CCOCC3)ncc2C1)c1ccccc1 (centres undefined) |
| 635 | O=C(c1ccsc1)N1CCN(c2nnc3c(Cl)cccn23)CC1 |
| 1050 | O=C(Cc1cccs1)N1CCCC1c1nc(-c2cccc(Cl)c2)no1 (centres undefined) |
| 708 | CCCn1c(CCc2ccccc2NS(=O)(=O)CCC)nc2ccccc21 |
| 1020 | O=C(Cn1ccc2ccccc21)N1CCC(COCc2ccccc2)CC1 |
| 944 | CCOc1ccc(-c2noc(CN3C(=O)COc4ccc(S(=O)(=O)CC)cc43)n2)cc1 |
| 1030 | CC(C)N1C(=O)C(C)(C(=O)Nc2ccc(F)c(F)c2)Oc2cccnc21 (centres undefined) |
| 841 | Cc1ccccc1CNC(=O)C1CCN(S(C)(=O)=O)c2ccccc2O1 (centres undefined) |
| 984 | CCOc1ccc(NC(=O)c2c(N3CCCC3=O)c3cc(OC)ccc3n2C)cc1 |
| 626 | CN1CCCC1c1nc(C2CN(S(=O)(=O)Cc3ccccc3F)C2)no1 (centres undefined) |
| 940 | CCc1ccccc1S(=O)(=O)NCc1c(-c2ccccc2)nc2sc(C)nn12 |
| 943 | COC(=O)c1ccc2c(=O)n(Cc3ccc(OC)cc3)c(N3CCOCC3)nc2c1 |
| 630 | Cc1ccc(Cl)cc1NC(=O)Cn1ncc2c(N3CCN(c4ccccn4)CC3)ncnc21 |

| RP-LC retention time [s] | SMILES |
| --- | --- |
| 593 | CC(C)N1CC(CNC(=O)c2ccco2)C2(CCCCC2)C1 (centres undefined) |
| 585 | CCn1nccc1C(=O)NC1CCN(c2ncnc3c2CCC3)C1 (centres undefined) |
| 664 | Cc1ccc(NC(=O)N2CCC(C)(C(=O)NCc3ccc(F)cc3)CC2)cc1Cl |
| 1070 | Cc1ccc(CCC(=O)Nc2nc(-c3ccc4c(c3)N(C)C(=O)C(C)O4)cs2)cc1 (centres undefined) |
| 533 | CCCN1CCN(CCCNC(=O)C2CCN(Cc3cn(C)c4ccc(OC)cc34)CC2)CC1 |
| 854 | Cc1ccc(NC(=O)c2nc3nc(C)cc(C(F)F)n3n2)c(C)c1 |
| 672 | O=C(CCn1cnc2cc(-c3noc(-c4cccs4)n3)ccc21)N1CCOCC1 |
| 770 | CCNc1nc(C)cc(N2CCN(S(=O)(=O)c3ccc(Cl)c(Cl)c3)CC2)n1 |
| 563 | O=C(NCCCN1CCOCC1)c1ccc(-c2ccc(N3CCCCC3)nn2)cc1 |
| 683 | COC(=O)c1ccc(NC(=O)CSc2ncnc3c2nnn3C)cc1 |
| 783 | COc1ccc(CNC(=O)C2CCCN(c3nnc4ccc(C(F)(F)F)cn34)C2)cc1 (centres undefined) |
| 1070 | Cc1ccc(C)c(-c2csc(Nc3ccc(S(=O)(=O)Nc4cc(C)on4)cc3)n2)c1 |
| 802 | COc1cc(NC(=O)Cn2cccc2-c2nnc(C3CC3)o2)cc(OC)c1 |
| 933 | O=C(NCCc1ccsc1)c1ccc(Cl)c(Cl)c1 |
| 753 | COc1ccc(CC(=O)Nc2cnn(-c3ncc(N(C)C)cn3)c2)c(Cl)c1 |
| 779 | O=C1CCCN2N=C(SCc3ccc([N+](=O)[O-])cc3)SC2=N1 |
| 724 | Cc1csc(-c2cc(S(=O)(=O)N3CCN(CC(C)C)CC3)cn2CC(=O)N2CCCCC2)n1 |
| 705 | O=C(NCCc1ccccc1)C1CCCN(C(=O)c2cc(-c3ccccn3)n[nH]2)C1 (centres undefined) |
| 573 | O=C(CCCN1C(=O)C(c2ccccc2)Oc2cccnc21)NCCCN1CCCCC1 (centres undefined) |
| 622 | Cn1nc(C(=O)Nc2ccc(CC(=O)NCC(F)(F)F)cc2)ccc1=O |
| 943 | COc1cc(OC)c(NC(=O)N(C)CCc2noc(-c3ccc(F)cc3)n2)cc1Cl |
| 770 | CC(C)CCNC(=O)c1cc2n(n1)CC(C)(C(=O)NCc1ccc(F)cc1)N(C)C2=O (centres undefined) |
| 772 | Cc1cc(-c2nnc(NC(=O)c3cc(Cl)sc3Cl)o2)n(C)n1 |

| RP-LC retention time [s] | SMILES |
| --- | --- |
| 716 | O=C(c1ccc(-c2ccsc2)nc1)N1CCCC1 |
| 593 | CC(C)CNC(=O)N(C)Cc1nc2cc(C(=O)NC(C)C)ccc2n1C |
| 773 | COc1cccc(-n2c(N3CCC(C(=O)NCC(C)C)CC3)nc3ccsc3c2=O)c1 |
| 1020 | CC(C)c1ccc(S(=O)(=O)c2cnc(N3CCC4(CC3)OCCO4)nc2N)cc1 |
| 1090 | Cc1ccc(Cn2cccc2C(=O)C(=O)Nc2ccc3c(c2)OCCO3)cc1 |
| 1010 | CCOC(=O)c1nc(N(C)c2cc(C)ccc2C)c2ccccc2n1 |
| 764 | COCC(=O)Nc1nc(-c2ccc3c(c2)N(C)C(=O)CO3)c(C)s1 |
| 1090 | CCOc1ccccc1NC(=O)CSc1nnc2c3cc(-c4ccc(C)c(C)c4)nn3ccn12 |
| 886 | COc1ccc(OC)c(NC(=O)NC2CCN(c3nc4ccccc4n(C)c3=O)CC2)c1 |
| 687 | CCc1ccc(NC(=O)C2CCN(c3c(C(=O)N(CC)CC)cnc4snc(C)c34)CC2)cc1 |
| 1100 | Cc1cccc(NC(=O)N2CCN(c3nc4ccccc4nc3C(F)(F)F)CC2)c1C |
| 855 | O=C(N[C@H]1C[C@@H]2C[C@H]1N(C(=O)Nc1ccc(Cl)cc1F)C2)c1cccs1 |
| 794 | Cc1ccc(-c2nc(-c3ccc(-n4ccnc4)nc3)no2)cc1 |
| 732 | Cn1c(N2CCN(C(=O)Cc3ccccc3Cl)CC2)cc(=O)n(C)c1=O |
| 928 | Cc1ccc(NC(=O)c2cn(C)nc2S(=O)(=O)N2CCSCC2)cc1 |
| 663 | O=C(CN1C(=O)C(C(=O)N2CCCCCC2)Sc2ccccc21)N1CCN(c2ccccc2)CC1 (centres undefined) |
| 876 | Cn1cc(C(=O)NCc2ccc(F)cc2F)c(S(=O)(=O)N2CCSCC2)n1 |
| 996 | Cc1noc(-c2cc(=O)n(CC(=O)Nc3cccc(C(C)C)c3)c3ccccc23)n1 |
| 878 | CC(C)n1cc(C2=CCN(C(=O)NC3CCCC3)CC2)c2cccnc21 |
| 580 | O=C(CCc1nnn2c1CN(C(=O)c1ccoc1)CC2)N1CCOCC1 |
| 852 | Cc1ccc(NC(=O)Cc2c(C)nn(-c3nc(-c4ccc(Cl)cc4)cs3)c2C)cc1C |
| 1050 | COc1cc(-c2noc(Cc3nnc(-c4cc(C)cc(C)c4)o3)n2)cc(OC)c1OC |
| 614 | Cc1ccc(S(=O)(=O)Nc2cncc(C(=O)O)c2)cc1 |

| RP-LC retention time [s] | SMILES |
| --- | --- |
| 912 | CCCCn1cc(S(=O)(=O)Nc2cccc(OC)c2)c2cccnc21 |
| 977 | CC(C)n1cc(S(=O)(=O)NCc2ccccc2C(F)(F)F)c2cccnc21 |
| 554 | COCC(=O)Nc1cnc(-c2cccnc2)nc1 |
| 751 | CCCCNC(=O)C1CCCN(c2nnc3ccc(C(F)(F)F)cn23)C1 (centres undefined) |
| 770 | Cc1cc(Cl)ccc1NC(=O)Cn1cnc2nc3c(cc2c1=O)CCCC3 |
| 1020 | Cc1nc2ncnn2c(N2CCC(C)CC2)c1C |
| 868 | O=C(NCc1ccc(-c2noc(Cc3ccccc3F)n2)s1)C1CC1 |
| 728 | CCC(=O)N1CCc2cc(N3CC(C(=O)NC4CCCCC4)CC3=O)ccc21 (centres undefined) |
| 599 | Cc1noc(C)c1S(=O)(=O)NCC1CCN(C(=O)c2cccn(C)c2=O)CC1 |
| 709 | CCOC(=O)c1cnc2nc(C)ccc2c1Nc1cc(OC)ccc1OC |
| 743 | COc1ccc(-c2nc3cc(C)ccn3c2Nc2ccccc2C)cc1 |
| 664 | Cn1cc(CN2CCCC(COc3ccccc3C(=O)N3CCOCC3)C2)c2ccccc21 (centres undefined) |
| 664 | Cc1[nH]c(C)c(S(=O)(=O)N2CCC(C(=O)NCc3cccs3)CC2)c1C(=O)N1CCCC1 |
| 593 | CCCN1CCN(C(=O)C2CCCN(c3nc4cccnc4s3)C2)CC1 (centres undefined) |
| 722 | Cc1nnc(-c2ccc(S(=O)(=O)NCc3ccco3)o2)o1 |
| 777 | CC(C)(N)C(=O)N[C@H](COCc1ccccc1)C(=O)N1CCC2(CC1)CN(S(C)(=O)=O)c1ccccc12 |
| 915 | O=C(Cn1cccc(-c2nc(-c3ccc(F)cc3)no2)c1=O)Nc1cc(F)ccc1F |
| 700 | CCn1cc(CCNC(=O)c2ccccc2Br)c2cccnc21 |
| 670 | COc1ccc(-c2c(C)noc2NC(C)=O)cc1S(=O)(=O)N1CCN(C(=O)c2ccco2)CC1 |
| 605 | Cc1nnc2n1CCN(C(=O)c1nn(C)c3ccccc13)C2 |
